In test [1] the target is T1, human progesterone receptor-A [PRA] isoform (Homo sapiens, UniProt P06401).
T1 construct: host or cells: insect SF21 cells (baculovirus)
T1 sequence (P06401 1-769 isoform P06401-2): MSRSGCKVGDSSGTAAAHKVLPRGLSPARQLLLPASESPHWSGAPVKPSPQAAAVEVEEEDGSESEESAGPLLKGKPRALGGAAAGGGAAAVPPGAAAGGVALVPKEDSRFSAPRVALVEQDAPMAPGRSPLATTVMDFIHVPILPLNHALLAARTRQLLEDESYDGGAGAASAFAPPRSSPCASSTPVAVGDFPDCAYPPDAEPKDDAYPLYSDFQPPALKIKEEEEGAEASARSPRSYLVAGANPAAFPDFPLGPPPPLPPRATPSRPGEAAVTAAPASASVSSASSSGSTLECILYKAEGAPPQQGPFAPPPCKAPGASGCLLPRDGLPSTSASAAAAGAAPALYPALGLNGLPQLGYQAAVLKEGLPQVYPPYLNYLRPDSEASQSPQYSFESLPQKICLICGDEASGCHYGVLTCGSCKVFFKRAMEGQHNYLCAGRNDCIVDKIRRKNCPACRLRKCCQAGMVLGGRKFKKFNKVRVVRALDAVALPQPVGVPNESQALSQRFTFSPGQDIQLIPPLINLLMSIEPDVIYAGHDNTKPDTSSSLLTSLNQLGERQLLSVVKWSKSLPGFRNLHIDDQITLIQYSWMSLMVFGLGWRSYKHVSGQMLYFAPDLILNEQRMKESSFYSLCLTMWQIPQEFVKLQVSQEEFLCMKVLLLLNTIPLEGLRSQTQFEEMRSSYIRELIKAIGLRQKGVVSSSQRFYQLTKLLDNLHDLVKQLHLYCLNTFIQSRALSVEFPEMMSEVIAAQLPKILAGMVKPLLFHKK
Kind of test: Radioligand binding with human progesterone receptor cytosol ([3H]-progesterone competition).

Test [2] has as its target T2, human glucocorticoid receptor-α [GRX] isoform (Homo sapiens, UniProt P04150).
T2 construct: host or cells: insect SF21 cells (baculovirus)
T2 sequence (P04150 1-777): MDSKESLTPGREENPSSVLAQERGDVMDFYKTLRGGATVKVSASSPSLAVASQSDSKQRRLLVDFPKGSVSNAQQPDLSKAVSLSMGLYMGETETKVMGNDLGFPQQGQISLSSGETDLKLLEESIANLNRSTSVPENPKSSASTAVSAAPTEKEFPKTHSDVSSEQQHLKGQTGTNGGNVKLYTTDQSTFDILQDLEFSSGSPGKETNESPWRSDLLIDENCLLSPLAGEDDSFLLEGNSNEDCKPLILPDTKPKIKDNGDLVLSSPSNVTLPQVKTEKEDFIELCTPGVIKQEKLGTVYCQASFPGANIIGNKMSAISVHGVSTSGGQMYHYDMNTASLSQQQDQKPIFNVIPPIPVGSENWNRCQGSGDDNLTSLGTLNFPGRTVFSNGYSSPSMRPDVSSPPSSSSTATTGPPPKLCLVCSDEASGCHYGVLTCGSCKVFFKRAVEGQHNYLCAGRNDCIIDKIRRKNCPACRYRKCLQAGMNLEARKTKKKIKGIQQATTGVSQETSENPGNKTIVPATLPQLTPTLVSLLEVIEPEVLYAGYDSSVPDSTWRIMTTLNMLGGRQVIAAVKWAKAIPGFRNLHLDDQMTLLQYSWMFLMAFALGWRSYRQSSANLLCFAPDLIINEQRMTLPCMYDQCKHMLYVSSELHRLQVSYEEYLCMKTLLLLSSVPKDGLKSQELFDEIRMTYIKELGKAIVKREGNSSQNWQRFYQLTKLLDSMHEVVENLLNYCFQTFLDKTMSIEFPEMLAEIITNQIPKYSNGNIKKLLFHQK
Kind of test: Radioligand binding with human glucocorticoid receptor cytosol ([3H]-dexamethasone competition).

Where [3] appears, read: PRA cytosol expressed in insect SF21 cells, [3H]Prog ~0.8 nM, 4° C. overnight, Ki by Cheng-Prusoff, KL ~4.5 nM, read-out: Ki (nM) PR.
Setting [4] is: GRX cytosol expressed in insect SF21 cells, [3H]-Dex ~0.9 nM, 4° C. overnight, Ki by Cheng-Prusoff, KL ~[…], read-out: Ki (nM) GR.

Where two headings read alike, the source gives them in different places.

As to `CC1=CC(C)(C)Nc2ccc3c(c21)C(=Cc1ccccc1)Oc1ccc(O)c(Cl)c1-3` [Example 401, 9-Hydroxy-10-chloro-5-(phenylmethylene)-2,2,4-trlimethyl-1H-2,5-dihydro-[1]benzopyrano[3,4-f]quinoline], the Ki in test [1] (setting [3]) amounted to 6080 nM; in test [2] (setting [4]), 134 nM.
Take `COc1c(O)ccc2c1-c1ccc3c(c1C(c1ccccc1OC(=O)N(C)C)O2)C(C)=CC(C)(C)N3` (stereo not drawn) [Example 402]: the values for the Ki in test [1] (Ki (nM) PR) and in test [2] (Ki (nM) GR) were 10100 nM and 3.3 nM, respectively.
On the same counts, the results for `COc1c(OC(=O)N(C)C)ccc2c1-c1ccc3c(c1C(c1ccccc1OC(=O)N(C)C)O2)C(C)=CC(C)(C)N3` (stereo not drawn) [Example 403, 2,5-Dihydro-9-N,N-dimethylcarbamoyloxy-10-methoxy-2,2,4-trimethyl-5-([2-N,N-dimethylcarbamoyloxy]phenyl)-1H-[1]benzopyrano[3,4-f]quinoline] are at least 10000 nM and 131 nM.
For the compound `CCC1Oc2ccc(O)c(Cl)c2-c2ccc3c(c21)C(C)=CC(C)(C)N3` (stereo not drawn) [Example 404, 2,5-Dihydro-9-hydroxy-10-chloro-2,2,4-trimethyl-5-ethyl-1H-[1]benzopyrano[3,4-f]quinoline], the Ki in test [1] (setting [3]) came out at 49.7 nM; in test [2] (setting [4]) it was 1.3 nM.
On to `CC1=CC(C)(C)Nc2ccc3c(c21)C(C(C)C)Oc1ccc(O)c(Cl)c1-3` (stereo not drawn) [Example 405, 2,5-Dihydro-9-hydroxy-10-chloro-2,2,4-trimethyl-5-isopropyl-1H-[1]benzopyrano[3,4-f]quinoline], for which the Ki in test [1] (setting [3]) was determined as 75.1 nM; in test [2] (setting [4]) it was 1.1 nM.
On the same counts, the results for `COc1c(O)ccc2c1-c1ccc3c(c1C(=Cc1ccccc1)O2)C(C)=CC(C)(C)N3` [Example 406, 9-Hydroxy-10-methoxy-5-(phenylmethylene)-2,2,4-trimethyl-1H-2,5-dihydro-[1]benzopyrano[3,4-f]quinoline] are 97.9 nM and 2.3 nM.
Turning to `CCCCC1Oc2ccc(O)c(Cl)c2-c2ccc3c(c21)C(C)=CC(C)(C)N3` (stereo not drawn) [Example 407, 2,5-Dihydro-9-hydroxy-10-chloro-2,2,4-trimethyl-5-butyl-1H-[1]benzopyrano[3,4-f]quinoline], the Ki amounted to 16.4 nM in test [1] (setting [3]) and 1.8 nM in test [2] (setting [4]).
For `COc1c(O)ccc2c1-c1ccc3c(c1C(c1nccs1)O2)C(C)=CC(C)(C)N3` (stereo not drawn) [Example 408, 2,5-Dihydro-9-hydroxy-10-methoxy-2,2,4-trimethyl-5-(1-thiazol-2-yl)-1H-[1]benzopyrano[3,4-f]quinoline] the same measures were 14100 nM and 112 nM.
With `CC1=CC(C)(C)Nc2ccc3c(c21)C(CC(C)C)Oc1ccc(O)c(Cl)c1-3` (stereo not drawn) [Example 409, 2,5-Dihydro-9-hydroxy-10-chloro-2,2,4-trimethyl-5-(2-methylpropyl)-1H-[1]benzopyrano[3,4-f]quinoline], the Ki was 42 nM in test [1] (setting [3]) and 2.7 nM in test [2] (setting [4]).
`C=CCC1Oc2ccc(CO)c(Cl)c2-c2ccc3c(c21)C(C)=CC(C)(C)N3` (stereo not drawn) [Example 410, 2,5-Dihydro-9-hydroxymethyl-10-chloro-2,2,4-trimethyl-5-allyl-1H-[1]benzopyrano[3,4-f]quinoline]: the Ki was 25.7 nM in test [1] (setting [3]) and 1.1 nM in test [2] (setting [4]).
With `COc1c(O)ccc2c1-c1ccc3c(c1C(=Cc1cccc(F)c1)O2)C(C)=CC(C)(C)N3` [Example 412, 9-Hydroxy-10-methoxy-5-([3-fluorophenyl]methylene)-2,2,4-trimethyl-1H-2,5-dihydro-[1]benzopyrano[3,4-f]quinoline], the Ki stood at 222 nM in test [1] (setting [3]) and 9 nM in test [2] (setting [4]).
As to `CC1=CC(C)(C)Nc2ccc3c(c21)C(=Cc1ccccn1)Oc1ccc(O)c(Cl)c1-3` [Example 413, 9-Hydroxy-10-chloro-5-([2-pyridyl]methylene)-2,2,4-trimethyl-1H-2,5-dihydro-[1]benzopyrano[3,4-f]quinoline], the Ki in test [1] (setting [3]) was 60.8 nM; in test [2] (setting [4]) it was 0.22 nM.

Broadly, the Ki is the equilibrium dissociation constant of an inhibitor or competing ligand from its target.

Values taken from patent US6506766B1 (Abbott Laboratories, priority 1998, dated 2003).
